Assay results reported in patent US6989380B2, “Treatment of pain” (The WKK Trust, priority 1996, dated 2006).

Test system: intractable trigeminal neuralgia
Assay: Case history: intractable trigeminal neuralgia
Type: in vivo, human
Settings: person; treatments tried before the combination; relief attributed to placebo effects
Protocol: A person suffered from intractable trigeminal neuralgia of many years standing. […] They then were treated with lofepramine, 70 mg bd, together with L-phenylalanine, 500 mg bd.

| SMILES | pain relief with earlier treatments |
| --- | --- |
| NC(=O)N1c2ccccc2C=Cc2ccccc21 [carbamazepine] | None had provided more than transient relief for a few days |
| CN1C(=O)CN=C(c2ccccc2)c2cc(Cl)ccc21 [diazepam] | None had provided more than transient relief for a few days |
| CNCCC(Oc1ccc(C(F)(F)F)cc1)c1ccccc1 (centres unmarked) [fluoxetine] | None had provided more than transient relief for a few days |
| CN1CC[C@]23c4c5ccc(O)c4O[C@H]2[C@@H](O)C=C[C@H]3[C@H]1C5 [morpine] | None had provided more than transient relief for a few days |
| O=C1NC(=O)C(c2ccccc2)(c2ccccc2)N1 [phenytoin] | None had provided more than transient relief for a few days |
